Experimental findings from US11130793B2, “GLP-1/GLP-2 dual agonists” (Zealand Pharma A/S, priority 2016, dated 2021) are described below.

The target of experiment [1] is T1, human GLP-1 receptor (Homo sapiens, UniProt P43220).
T1 construct: expressed in transfected cells
The experiment in a line: GLP-1 receptor potency assay (cAMP AlphaScreen, HEK293 cells stably expressing GLP-1R). The experiment is classed as cell-based. Conditions: cAMP response, HEK293 cells expressing human GLP-1R; read-out: EC50 GLP-1. The source says:
(§1) One useful in vitro assay for measuring GLP-1 and GLP-2 receptor activity is quantitation of cAMP, i.e. 3′-5′-cyclic adenosine monophosphate, which is a second messenger essential in many biological processes, and one of the most ubiquitous mechanisms for regulating cellular functions. […] Test compounds eliciting an increase in the intracellular level of cAMP can be tested in these assays, and the response normalized relative to a positive and negative control (vehicle) to calculate the EC50 and maximal response from the concentration response curve using the 4-parameter logistic (4PL) nonlinear model for curve fitting.
The cDNA encoding the human glucagon-like peptide 1 receptor (GLP-1R) (primary accession number P43220) was cloned from the cDNA BC112126 (MGC:138331/IMAGE:8327594). The DNA encoding the GLP-1-R was amplified by PCR using primers encoding terminal restriction sites for subcloning. The 5′-end primers additionally encoded a near Kozak consensus sequence to ensure efficient translation. […] The PCR products encoding the GLP-1-R were subcloned into a mammalian expression vector containing a neomycin (G418) resistance marker. The mammalian expression vectors encoding the GLP-1-R were transfected into HEK293 cells by a standard calcium phosphate transfection method. 48 hours post-transfection, cells were seeded for limited dilution cloning and selected with 1 mg/ml G418 in the culture medium. Following 3 weeks in G418 selection clones were picked and tested in a functional GLP-1 receptor potency assay as described below.
(§2) The cAMP AlphaScreen assay from Perkin Elmer was used to quantitate the cAMP response to activation of the GLP1 and GLP2 receptor, respectively. […] Data from test compounds eliciting an increase in the intracellular level of cAMP were normalized relative to the positive and negative control (vehicle) to calculate the EC50 and maximal response from the concentration response curve.

Experiment [2] concerns the target T2, human GLP-2 receptor (Homo sapiens, UniProt O95838, D470N).
T2 sequence (O95838 1-553 D470N): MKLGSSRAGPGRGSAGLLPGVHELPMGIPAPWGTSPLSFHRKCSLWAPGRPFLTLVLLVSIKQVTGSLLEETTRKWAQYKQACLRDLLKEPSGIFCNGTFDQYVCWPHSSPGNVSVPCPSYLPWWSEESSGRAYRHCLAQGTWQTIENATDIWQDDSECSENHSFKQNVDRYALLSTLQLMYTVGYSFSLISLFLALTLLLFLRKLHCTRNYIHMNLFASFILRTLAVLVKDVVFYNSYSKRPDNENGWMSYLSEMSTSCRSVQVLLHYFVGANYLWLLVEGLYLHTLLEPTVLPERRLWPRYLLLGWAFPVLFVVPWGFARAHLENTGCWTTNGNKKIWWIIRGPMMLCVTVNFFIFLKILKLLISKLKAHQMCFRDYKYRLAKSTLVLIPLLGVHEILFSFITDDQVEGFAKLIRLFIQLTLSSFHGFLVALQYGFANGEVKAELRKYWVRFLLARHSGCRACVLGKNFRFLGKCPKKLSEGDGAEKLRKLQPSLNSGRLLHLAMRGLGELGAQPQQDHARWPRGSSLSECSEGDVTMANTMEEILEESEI
The experiment is described as follows: GLP-2 receptor potency assay (cAMP AlphaScreen, HEK293 cells stably expressing GLP-2R). The settings on record: cAMP response, HEK293 cells expressing human GLP-2R. The experiment is classed as cell-based.
Description: as §1
The hGLP2-R was purchased from MRC-geneservice, Babraham, Cambridge as an Image clone: 5363415 (11924-I17). For subcloning into a mammalian expression vector, primers for subcloning were obtained from DNA-Technology, Risskov, Denmark. The 5′ and 3′ primers used for the PCR reaction include terminal restriction sites for cloning and the context of the 5′ primer is modified to a Kozak consensus without changing the sequence of the product encoded by the ORF. A standard PCR reaction was run using Image clone 5363415 (11924-117) as a template with the above mentioned primers and Polymerase Herculase II Fusion in a total vol. of 50 μl. The generated PCR product was purified using GFX PCR and Gel band purification kit, digested with restriction enzymes and cloned into the mammalian expression vector using Rapid DNA Ligation Kit. Ligation reaction was transformed to XL10 Gold Ultracompetent cells and colonies were picked for DNA production using Endofree Plasmid maxi kit. Subsequent sequence analysis was conducted by MWG Eurofins, Germany.
HEK293 cells were transfected using the Lipofectamine PLUS transfection method. The day before transfection, HEK293 cells were seeded in two T75 flasks at a density of 2×10^6 cells/T75 flask in cell culturing medium without antibiotics. On the day of transfection, cells were washed with 1×DPBS and medium was replaced with Optimem to a volume of 5 mL/T75 flask before addition of Lipofectamine-plasmid complexes were added gently and drop wise to the cells in T75 flasks and replaced with growth medium after 3 hours and again to growth medium supplemented with 500 μg/mL G418 after 24 hours. Following 4 weeks in G418 selection, clones were picked and tested in a functional GLP-2 receptor potency assay as described below.
as §2

Square brackets hold non-standard residues; d marks the D form. Peptide text beside a SMILES is read from it. Aib = CC(C)(N)C(=O)O

T1 sequence (P43220 24-463): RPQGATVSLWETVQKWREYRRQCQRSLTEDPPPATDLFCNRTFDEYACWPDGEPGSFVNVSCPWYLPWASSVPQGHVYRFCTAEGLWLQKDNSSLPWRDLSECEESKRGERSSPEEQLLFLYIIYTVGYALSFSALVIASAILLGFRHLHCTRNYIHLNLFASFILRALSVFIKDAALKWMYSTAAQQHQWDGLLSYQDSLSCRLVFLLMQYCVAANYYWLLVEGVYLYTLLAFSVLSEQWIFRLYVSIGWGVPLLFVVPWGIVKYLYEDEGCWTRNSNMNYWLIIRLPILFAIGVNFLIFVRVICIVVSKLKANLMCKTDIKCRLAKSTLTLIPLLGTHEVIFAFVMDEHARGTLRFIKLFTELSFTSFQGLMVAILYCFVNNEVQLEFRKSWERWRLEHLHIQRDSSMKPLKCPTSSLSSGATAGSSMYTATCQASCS

`CC[C@H](C)[C@H](NC(=O)[C@H](CC(C)C)NC(=O)[C@H](Cc1c[nH]c2ccccc12)NC(=O)[C@H](C)NC(=O)[C@@H](NC(=O)[C@H](Cc1ccccc1)NC(=O)[C@H](CC(=O)O)NC(=O)[C@H](CCCNC(=N)N)NC(=O)[C@H](C)NC(=O)[C@H](C)NC(=O)[C@H](CCC(N)=O)NC(=O)[C@H](CCC(=O)O)NC(=O)[C@H](CC(=O)O)NC(=O)[C@H](CC(C)C)NC(=O)[C@@H](NC(=O)[C@@H](NC(=O)[C@H](CO)NC(=O)[C@H](CC(C)C)NC(=O)[C@H](CCC(=O)O)NC(=O)[C@H](CO)NC(=O)[C@@H](NC(=O)[C@H](Cc1ccccc1)NC(=O)[C@@H](NC(=O)CNC(=O)[C@H](CCC(=O)O)NC(=O)C(C)(C)NC(=O)[C@@H](N)Cc1c[nH]cn1)[C@@H](C)O)[C@@H](C)O)[C@@H](C)O)[C@@H](C)CC)[C@@H](C)CC)C(=O)N[C@@H](C)C(=O)N[C@@H](Cc1c[nH]cn1)C(=O)N[C@@H](CCCCN)C(=O)N[C@H](C(=O)N[C@H](C(=O)N[C@@H](CC(=O)O)C(=O)O)[C@@H](C)O)[C@@H](C)CC` [Compound 10] (H-H[Aib]EGTFTSELSTILDEQAARDFIAWLIAHKITD-OH): the EC50 in experiment [1] was found to be 0.005 nM; in experiment [2], 0.05 nM.

For the molecule `CC[C@H](C)[C@H](NC(=O)[C@H](CC(C)C)NC(=O)[C@H](Cc1c[nH]c2ccccc12)NC(=O)[C@H](C)NC(=O)[C@@H](NC(=O)[C@H](Cc1ccccc1)NC(=O)[C@H](CC(=O)O)NC(=O)[C@H](CCCNC(=N)N)NC(=O)[C@H](C)NC(=O)[C@H](C)NC(=O)[C@H](CCCCN)NC(=O)CNC(=O)[C@H](CC(=O)O)NC(=O)[C@H](CC(C)C)NC(=O)[C@@H](NC(=O)[C@@H](NC(=O)[C@H](C)NC(=O)[C@H](CC(C)C)NC(=O)[C@H](CCC(=O)O)NC(=O)[C@H](CO)NC(=O)[C@@H](NC(=O)[C@H](Cc1ccccc1)NC(=O)[C@@H](NC(=O)CNC(=O)[C@H](CCC(=O)O)NC(=O)C(C)(C)NC(=O)[C@@H](N)Cc1c[nH]cn1)[C@@H](C)O)[C@@H](C)O)[C@@H](C)O)[C@@H](C)CC)[C@@H](C)CC)C(=O)N[C@@H](C)C(=O)N[C@@H](Cc1c[nH]cn1)C(=O)N[C@@H](CCCCN)C(=O)N[C@H](C(=O)N[C@H](C(=O)N[C@@H](CC(=O)O)C(=O)O)[C@@H](C)O)[C@@H](C)CC` [Compound 11] (H-H[Aib]EGTFTSELATILDGKAARDFIAWLIAHKITD-OH), the EC50 was found to be 0.011 nM in experiment [1] and 0.085 nM in experiment [2].

Regarding `CC[C@H](C)[C@H](NC(=O)[C@H](Cc1ccccc1)NC(=O)[C@H](CC(=O)O)NC(=O)[C@H](CCCNC(=N)N)NC(=O)[C@H](C)NC(=O)[C@H](C)NC(=O)[C@H](CCC(N)=O)NC(=O)[C@H](CCC(=O)O)NC(=O)[C@H](CC(=O)O)NC(=O)[C@H](CC(C)C)NC(=O)[C@@H](NC(=O)[C@@H](NC(=O)[C@H](C)NC(=O)[C@H](CC(C)C)NC(=O)[C@H](CCC(=O)O)NC(=O)[C@H](CO)NC(=O)[C@@H](NC(=O)[C@H](Cc1ccccc1)NC(=O)[C@@H](NC(=O)CNC(=O)[C@H](CCC(=O)O)NC(=O)C(C)(C)NC(=O)[C@@H](N)Cc1c[nH]cn1)[C@@H](C)O)[C@@H](C)O)[C@@H](C)O)[C@@H](C)CC)C(=O)N[C@@H](C)C(=O)N[C@@H](Cc1c[nH]c2ccccc12)C(=O)N[C@@H](CC(C)C)C(=O)N[C@@H](Cc1c[nH]cn1)C(=O)N[C@@H](C)C(=O)N[C@@H](Cc1c[nH]cn1)C(=O)N[C@@H](CCCCN)C(=O)N[C@H](C(=O)N[C@H](C(=O)N[C@@H](CC(=O)O)C(=O)O)[C@@H](C)O)[C@@H](C)CC` [Compound 12] (H-H[Aib]EGTFTSELATILDEQAARDFIAWLHAHKITD-OH), the figures for the EC50 in experiment [1] and in experiment [2] were 0.055 nM and 0.076 nM, respectively.

For the molecule `CC[C@H](C)[C@H](NC(=O)[C@H](Cc1ccccc1)NC(=O)[C@H](CC(=O)O)NC(=O)[C@H](CCCNC(=N)N)NC(=O)[C@H](C)NC(=O)[C@H](C)NC(=O)[C@H](CCC(N)=O)NC(=O)[C@H](CCC(=O)O)NC(=O)[C@H](CC(=O)O)NC(=O)[C@H](CC(C)C)NC(=O)[C@@H](NC(=O)[C@@H](NC(=O)[C@H](C)NC(=O)[C@H](CC(C)C)NC(=O)[C@H](CCC(=O)O)NC(=O)[C@H](CO)NC(=O)[C@@H](NC(=O)[C@H](Cc1ccccc1)NC(=O)[C@@H](NC(=O)CNC(=O)[C@H](CCC(=O)O)NC(=O)C(C)(C)NC(=O)[C@@H](N)Cc1c[nH]cn1)[C@@H](C)O)[C@@H](C)O)[C@@H](C)O)[C@@H](C)CC)C(=O)N[C@@H](C)C(=O)N[C@@H](Cc1c[nH]c2ccccc12)C(=O)N[C@@H](CC(C)C)C(=O)N[C@@H](CCC(N)=O)C(=O)N[C@@H](C)C(=O)N[C@@H](Cc1c[nH]cn1)C(=O)N[C@@H](CCCCN)C(=O)N[C@H](C(=O)N[C@H](C(=O)N[C@@H](CC(=O)O)C(=O)O)[C@@H](C)O)[C@@H](C)CC` [Compound 13] (H-H[Aib]EGTFTSELATILDEQAARDFIAWLQAHKITD-OH), the values for the EC50 in experiment [1] and in experiment [2] were 0.016 nM and 0.083 nM, respectively.

`CC[C@H](C)[C@H](NC(=O)[C@H](Cc1ccccc1)NC(=O)[C@H](CC(=O)O)NC(=O)[C@H](CCCNC(=N)N)NC(=O)[C@H](C)NC(=O)[C@H](C)NC(=O)[C@H](CCC(N)=O)NC(=O)[C@H](CCC(=O)O)NC(=O)[C@H](CC(=O)O)NC(=O)[C@H](CC(C)C)NC(=O)[C@@H](NC(=O)[C@@H](NC(=O)[C@H](C)NC(=O)[C@H](CC(C)C)NC(=O)[C@H](CCC(=O)O)NC(=O)[C@H](CO)NC(=O)[C@@H](NC(=O)[C@H](Cc1ccccc1)NC(=O)[C@@H](NC(=O)CNC(=O)[C@H](CCC(=O)O)NC(=O)C(C)(C)NC(=O)[C@@H](N)Cc1c[nH]cn1)[C@@H](C)O)[C@@H](C)O)[C@@H](C)O)[C@@H](C)CC)C(=O)N[C@@H](C)C(=O)N[C@@H](Cc1c[nH]c2ccccc12)C(=O)N[C@@H](CC(C)C)C(=O)N[C@@H](Cc1ccc(O)cc1)C(=O)N[C@@H](C)C(=O)N[C@@H](Cc1c[nH]cn1)C(=O)N[C@@H](CCCCN)C(=O)N[C@H](C(=O)N[C@H](C(=O)N[C@@H](CC(=O)O)C(=O)O)[C@@H](C)O)[C@@H](C)CC` [Compound 14] (H-H[Aib]EGTFTSELATILDEQAARDFIAWLYAHKITD-OH): the EC50 in experiment [1] amounted to 0.021 nM; in experiment [2], 0.049 nM.

With `CC[C@H](C)[C@H](NC(=O)[C@H](Cc1ccccc1)NC(=O)[C@H](CC(=O)O)NC(=O)[C@H](CCCNC(=N)N)NC(=O)[C@H](C)NC(=O)[C@H](C)NC(=O)[C@H](CCC(N)=O)NC(=O)[C@H](CCC(=O)O)NC(=O)[C@H](CC(=O)O)NC(=O)[C@H](CC(C)C)NC(=O)[C@@H](NC(=O)[C@@H](NC(=O)[C@H](C)NC(=O)[C@H](CC(C)C)NC(=O)[C@H](CCC(=O)O)NC(=O)[C@H](CO)NC(=O)[C@@H](NC(=O)[C@H](Cc1ccccc1)NC(=O)[C@@H](NC(=O)CNC(=O)[C@H](CCC(=O)O)NC(=O)C(C)(C)NC(=O)[C@@H](N)Cc1c[nH]cn1)[C@@H](C)O)[C@@H](C)O)[C@@H](C)O)[C@@H](C)CC)C(=O)N[C@@H](C)C(=O)N[C@@H](Cc1c[nH]c2ccccc12)C(=O)N[C@@H](CC(C)C)C(=O)N[C@H](C(=O)N[C@@H](CCC(N)=O)C(=O)N[C@@H](Cc1c[nH]cn1)C(=O)N[C@@H](CCCCN)C(=O)N[C@H](C(=O)N[C@H](C(=O)N[C@@H](CC(=O)O)C(=O)O)[C@@H](C)O)[C@@H](C)CC)[C@@H](C)CC` [Compound 15] (H-H[Aib]EGTFTSELATILDEQAARDFIAWLIQHKITD-OH), the EC50 in experiment [1] was determined as 0.005 nM; in experiment [2] it was 0.038 nM.
